For assay [1], the system named is TLR3. In words: Inhibition of IFN-β- or dsRNA transfection-increased TLR3, PKR, MHC class I RNA in FRTL-5 thyrocytes (Northern/PCR). The assay is classed as cell-based, rat. Particulars: for % TLR3 Inhibition vs Control: 3 replicates. On the procedure: FIG. 4. Phenylmethimazole (C10) and Methimazole (MMI) inhibit the ability of IFN-β to increase TLR3, PKR, and MHC class I RNA levels in FRTL-5 thyrocytes. Cells were incubated with or without 100 U/ml of IFN-β for 3 hours in the presence of dimethyl sulfoxide (DMSO), C10, or MMI. DMSO is the vehicle control. Northern blots were performed with 20 ug of total RNA to detect TLR 3, PKR, MHC I, and GAPDH using radiolabeled cDNA probes. Data are representative of multiple experiments. As was the case for Poly (I:C) transfection in FIG. 2B, IFN-β increased TLR3.
We evaluated the ability of C10 and MMI to inhibit TLR3 expression and signaling. C10 prevented the ability of dsRNA transfection and incubation with IFN-β to increase TLR3RNA levels in FRTL-5 cells, as measured by PCR (FIG. 4A). […] DMSO is the vehicle for C10 because of the hydrophobicity of C10; it had no significant effect on basal activity and was used as the control value in all experiments described herein.
The C-10 and MMI reduced the ability of IFN-β to increase PKR and MHC class I RNA levels, albeit relatively less than TLR3 (FIG. 4B). […] We questioned the C10 mechanism of action.
RNA Isolation and Northern Analysis. […] .
RT-PCR. DNA was removed from total RNA using the DNA-free Kit (Ambion) according to the manufacturer's instructions. One μg of RNA was used to synthesize cDNA using the Advantage RT-for-PCR Kit (BD Biosciences) according to the manufacturer's protocol. Fifty ng of cDNA was subsequently used for PCR of TLR-3, and β-Actin; 250 ng of cDNA was used for PCR of IFN-β. The primers used for amplification of human TLR-3 and β-Actin have been previously described (K. U. Saikh, et al., Clin Diagn Lab Immunol, 10:1065-73 (2003)).

Assay [2] concerns IRF-3. Put plainly: IRF-3 transactivation cis reporter in FRTL-5 thyrocytes. Format: cell-based, rat. Particulars: FRTL-5, 6 hours, 0.5 mM C-10. As for the experimental part: FIG. 5. Phenylmethimazole (CIO) and Methimazole (MMI) inhibit the ability of Poly (I:C), lipopolysaccharide (LPS) and IL-1β to increase IFN-β gene expression (Top Left) and IRF-3 transactivation (Top Right) in FRTL-5 thyrocytes. (Top Left) Cells were co-transfected with IFNβ-Luc and control vector (pRLTk-Int), then treated with or without (−) Poly (I:C) (100 μg/ml), LPS (100 ng/ml), or IL-1β (10 ng/ml) in the presence of the vehicle (DMSO) alone (−), C10, or MMI for 6 hours. Data was obtained with the Dual Luciferase Assay system. (Top Right) Cells were co-transfected with Gal4 DBD/IRF-3 and Gal4-Luc then treated with nothing (−), poly (I:C), LPS, or IL-1β as in (Top Left) in the presence of DMSO or C10 for 6 hours. Data was obtained by Luciferase assay. Also shown is a graphic depiction (Bottom) of how the cis reporting system is working. Data are representative of multiple experiments.
We measured the ability of C10 to inhibit IRF-3 transactivation activity in FRTL-5 thyrocytes, using the IRF-3 cis reporter system (FIG. 5, bottom).
Plasmids for Reporter Gene Assays. Human IRF-3 was amplified from human cDNA and cloned into pCR 2.1 by the TOPO/TA (Invitrogen, Carlsbad, Calif.) cloning method, and then sequenced. IRF-3 was then excised by EcoRI digestion and subcloned into pCMV-BD (Stratagene, La Jolla, Calif.) for use in transactivation assays. […]

Assay [3] has as its system NF-κB p65/p50 complex. Put plainly: EMSA of NF-κB p65/p50 complex formation in FRTL-5 thyrocytes. Format: cell-based, rat. Particulars: FRTL-5, EMSA, 6 hours. In general terms: In EMSA bound probe runs differently from free probe, usually more slowly.
The test system of assay [4] is serum cytokines. In words: Serum pro-inflammatory cytokines in LPS-treated mice (ELISA). Particulars: LPS-treated mice of Table 5. Format: in vivo, mouse. On the procedure: Quantification of pro-inflammatory cytokines in blood: The cytokines TNF-α, IL-1β, IL-6, IFN-γ and IL-12 were quantified in serum using ELISA techniques. Blood was collected from the inner canthus of the eye under anesthesia and serum saved at −20° C. until use. The ELISA kits were from R&D System and the results were expressed in pg/ml serum.
On the technique in general: An ELISA detects its analyte on a solid surface through an enzyme-linked reagent.

Assay [5] concerns RAW 264.7 cells. Put plainly: LPS-induced cytokine mRNA in RAW 264.7 macrophages (real-time PCR, Northern). Particulars: RAW 264.7, LPS 1 μg/mL. In general terms: Quantitative PCR measures a nucleic acid by following its amplification.
Setting [6] is: 1 hour, real-time PCR vs DMSO control.
The mark [7] stands for this setting: 3 hours, real-time PCR vs DMSO control.

Several values for one entry are separate records, joined by “and”; a condition that tells them apart may be missing. Equal entries are not always repeated.

Turning to `Cn1c(-c2ccccc2)cnc1S` [Compound C10, 5-Phenylmethimazole], in assay [1] (C10 stored in aqueous cyclodextrin preparation for 6 weeks prior to use), the “decrease of TLR3 and IFN-β-mRNA levels in thyrocytes vs solutions with DMSO” value is on record as “equally effective”. In addition, the “IFN-β increased MHC class I and PKR mRNA levels” value is given as “significantly decreased” in assay [1] (FRTL-5, 100 U/ml IFN-β 3 hours) and “reduced” in assay [1] (FRTL-5, 100 U/ml IFN-β 3 hours, listed as C-10). For the same molecule, the “IFN-β-increased TLR3 RNA levels” value in assay [1] (FRTL-5, 100 U/ml IFN-β 3 hours, C10 0.5 mM, MMI 5 mM) was “totally prevented”. Also, the “basal level of TLR 3 mRNA” value in assay [1] (FRTL-5, no IFN-β) was “slightly reduced”. For the same molecule, the “% TLR3 Inhibition vs Control” value is reported as 90% in assay [1] (IFN-β increased TLR3 RNA, C10 0.1 mM in Excip.) and 90% in assay [1] (dsRNA increased TLR3 RNA, C10 0.1 mM in DMSO). The “IRF-3 transactivation by poly (I:C), LPS, or IL-1β” value in assay [2] was “inhibited”. For the same molecule, in assay [3], the “effect on Poly (I:C)- or LPS-increased p65/p50 complex formation” value is “did not have any significant effect”. Moreover, the “serum cytokine levels (IL-1β, IL-6, TNF-α, IFN-γ, IL-12) by ELISA” value in assay [4] is “reduced these cytokine levels to levels in normal control mice”. Further, the “reduction in LPS-increased TNF-α” value in assay [5] (1 or 6 hours, real-time PCR) is recorded as “no reduction”; in assay [5] (setting [7]) it was 4 fold. Further, the “decrease in LPS-increased IFN-β gene expression” value in assay [5] (setting [6]) stood at 8 fold. Besides, in assay [5] (setting [6]), the “decrease in LPS-induced IL-1β” value is 11 fold. The “decrease in LPS-increased IL-6” value in assay [5] (setting [7]) is 16 fold and > 16 fold. For the same molecule, the “reduction in LPS-induced IL-12 p40” value in assay [5] (6 hours, real-time PCR vs DMSO control) was 16 fold.

Values taken from US9326972B2, “Use of phenylmethimazoles, methimazole derivatives, and tautomeric cyclic thiones for the treatment of autoimmune/inflammatory diseases associated with toll-like receptor overexpression” (Ohio University, priority 2004, dated 2016).
